Values of other authors, collected in paper PMC5408581, “Using X-ray Crystallography, Biophysics, and Functional Assays to Determine the Mechanisms Governing T-cell Receptor Recognition of Cancer Antigens” (Journal of Visualized Experiments : JoVE, 2017).
Read-outs that look alike come from different tables or passages of the source. One block for each sequence: values may come before it.

Legend:
[1] = molecular target: PMEL17 TCR (TRAV21 TRBV7-3); set-up: method as in PMID 26917722; settings: SPR, CM5 chip, 25 °C, table reprinted
[2] = molecular target: gp100 TCR (TRAV17 TRBV19); set-up: method as in PMID 26917722; settings: SPR, CM5 chip, 25 °C, table reprinted; for Kd: read-out: gp100 TCR TRAV17 TRBV19 Affinity KD
[3] = peptide refolded with biotin-tagged HLA-A*0201/β2m and coupled via streptavidin (~500-600 RU), ten serial dilutions of soluble TCR, 30 µL/min, equilibrium KD by nonlinear fit

- PMEL17 TCR TRAV21 TRBV7-3 Affinity KD [1, 3]: No binding
- gp100 TCR TRAV17 TRBV19 Affinity KD [2, 3]: No binding
Sequence: YLAPGPVTA [YLE-3A, with HLA-A*0201 called A2-YLE-3A]

- Kd ([1]; read-out: PMEL17 TCR TRAV21 TRBV7-3 Affinity KD, peptide-HLA-A*0201 coupled via streptavidin, soluble TCR injected, bound given in mM): > 1 mM
- Kd ([2]; peptide-HLA-A*0201 coupled via streptavidin, soluble TCR injected, bound given in mM): > 1 mM
Sequence: YLEPAPVTA [YLE-5A, with HLA-A*0201 called A2-YLE-5A]

- Kd [2, 3]: 0.0265 ± 0.0023 mM
Sequence: YLEPGPVTA [presented by HLA-A*0201 it is called A2-YLE]

- Kd [2, 3]: 0.0219 ± 0.0024 mM
Sequence: YLEPGPVTV [YLE-9V, with HLA-A*0201 called A2-YLE-9V]
